According to patent publication US20010010814A1, “[…] ENCODING PRO-APOPTOTIC BAX GENE AND USES THEREOF” (priority 1998, published 2001):
Where two headings read alike, the source gives them in different places.

Key:
[1] = test system: SW626 cells; experiment: MTS cell viability assay, SW626; type: cell-based; details: Homo sapiens, SW626, 48 h, read-out: IC50 of taxol
Method: (§1) The replication-incompetent adenoviral type 5 recombinant vectors encoding bax (Ad/Bax), and Cre recombinase (Ad/Cre), were generated as described. Ad/LacZ, encoding the E. coli LacZ gene, was provided by Robert Gerald (The Center for Transgene Technology and Gene Therapy, Leuven. Belgium). All recombinant adenoviruses were propagated in 293 cells and purified by centrifugation in CsCl gradients by a standard protocol. For viral infection in dishes, the cells were plated in 6 or 96 wells the day before the experiment. The viruses were then added at a designed multiplicity of infection (moi) and incubated for 1 to 2 hours. […]
(§2) Cells were seeded in either 6-well or 96-well plates 24 hours before viral infection. […] Cell viability was determined using a calorimetric method with 3-(4,5-dimehtylthiazol-2-yl)-5-(3-carboxymethoxyphenyl)-2-(4-sulfophenyl)-2H-tetrazolium (MTS) according to the instructions of the manufacturer (Promega). […]
(§3) To determine the cytotoxic effects of Bax, five ovarian cancer cell lines were co-infected with Ad/Bax and Ad/Cre or Ad/lacZ and Ad/Cre at ratio of 5 to 1 at a total moi of 100. After 48 hours, cell viability was determined by MTS assays (FIG. 11). […]
(§4) Stable overexpression of Bax in some cancer cell lines synergizes the killing effect of chemotherapy or radiotherapy. […] Cell viability was measured by an MTS assay. […]

[2] = test system: SKOV3.ip1 cells; experiment: MTS cell viability assay, SKOV3.ip1; type: cell-based; details: Homo sapiens, 48 h, read-out: IC50 of taxol
Method: as §1, §2, §3, §4

[3] = test system: primary ovarian cancer cells from ascites of patients; experiment: MTS cell viability assay, primary ovarian cancer cells; type: cell-based, human
Method: Primary ovarian cancer cells were isolated by affinity purification from ascites obtained from patients with ovarian cancer. Fresh ascites was centrifuged to collect cells in suspension. The cells were then washed and resuspended in PBS with 0.1% BSA. The CC49 antibody (provided by Dr. Jeffrey Schlom, NIH, Bethesda, Md.), which specifically recognizes the pancarcinomatous antigen TAG-72, was added to the cell suspension at a concentration of 1 μg/10^7 cells, and incubated at 4° C. for one hour. To isolate the immuno-complex formed by the CC49 antibody and the TAG-72 expressing tumor cells, magnetic Dynabeads (Dynal Inc. Lake success, N.Y.) coated with a secondary anti-panmouse IgG antibody were added at a ratio of 4 beads/cell, according to the protocol of the manufacturer. The bead-targeted complexes were then washed and captured with a magnetic particle concentrator (Dynal Inc.). Finally, the purified cells were released from the beads by brief trypsinization and recovered in RPMI complete medium.
as §2

[4] = combined treatment with Bax (Ad/Bax plus Ad/Cre, moi 100)

SMILES: CC(=O)O[C@H]1C(=O)[C@@]2(C)[C@H]([C@H](OC(=O)c3ccccc3)[C@]3(O)C[C@H](OC(=O)[C@H](O)[C@@H](NC(=O)c4ccccc4)c4ccccc4)C(C)=C1C3(C)C)[C@]1(OC(C)=O)CO[C@@H]1C[C@@H]2O [taxol]
- IC50 [1, 4]: 5 µg/mL
- IC50 ([1]; control cells): 31 µg/mL
- IC50 [2, 4]: 13 µg/mL
- IC50 ([2]; control cells): 39 µg/mL
- cell death (MTS) ([3]; taxol 20 μg/ml alone, 48 hours): 15%
- cell death (MTS) ([3]; taxol 20 μg/ml combined with Bax (Ad/Bax and Ad/Cre, 200 moi)): over 50%
